Surviving fraction data for 5 test systems are collected here from the supplement of paper PMC6045584.

± gives the standard deviation of the averaged measurements.

Compound in one assay: CO[C@H]1C[C@@H]2CC[C@@H](C)[C@@](O)(O2)C(=O)C(=O)N2CCCC[C@H]2C(=O)O[C@H]([C@H](C)C[C@@H]2CC[C@@H](OCCO)[C@H](OC)C2)CC(=O)[C@H](C)/C=C(\C)[C@@H](O)[C@@H](OC)C(=O)[C@H](C)C[C@H](C)/C=C/C=C/C=C/1C [EVEROLIMUS]
The experiment in a line: surviving fraction relative to DMSO-only wells; higher = less growth inhibition. To be noted: exposure time: 5 days. The method in brief: (§1)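 Lines were retained only if, across three screens, replicate Pearson r was >0.7 and median Z' was >0.3. Viability was measured as CellTiter-Glo luminescence and reported as surviving fraction relative to the median of DMSO-only wells. Readings followed 10 minutes at room temperature, after log-phase tumour cells seeded at 250–500 per well in 384-well plates had been exposed, from 24 hours after seeding, continuously for five days to inhibitors at 0.5, 1, 5, 10, 50, 100, 500 and 1000 nM.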

Compound in a further assay: O=C(O)CC[C@H]1CC[C@@](c2cc(F)ccc2F)(S(=O)(=O)c2ccc(Cl)cc2)CC1 [MK0752]
Described as above. Conditions: exposure time: 5 days. In a few lines: as §1

Take HCT15 LARGE INTESTINE: the surviving fraction with EVEROLIMUS (0.5 nM) came to 0.803 ± 0.066; with EVEROLIMUS (1 nM), 0.702 ± 0.066; with EVEROLIMUS (5 nM) it was 0.599 ± 0.07; in the assay with EVEROLIMUS (10 nM) it was 0.511 ± 0.013; with EVEROLIMUS (50 nM), 0.512 ± 0.055; in the assay with EVEROLIMUS (100 nM) it was 0.511 ± 0.059. In addition, the surviving fraction amounted to 0.476 ± 0.046 in the assay with EVEROLIMUS (500 nM); 0.542 ± 0.037 in the assay with EVEROLIMUS (1000 nM); 1.1 ± 0.032 with MK0752 (0.5 nM); 1.08 ± 0.05 with MK0752 (1 nM); 1.11 ± 0.032 with MK0752 (5 nM); 1.09 ± 0.055 with MK0752 (10 nM). For the same test system, the surviving fraction was 1.09 ± 0.029 with MK0752 (50 nM), 1.1 ± 0.024 in the assay with MK0752 (100 nM), 1.09 ± 0.044 in the assay with MK0752 (500 nM) and 1.082 ± 0.0067 in the assay with MK0752 (1000 nM).
With HELA CERVIX, the surviving fraction in the assay with EVEROLIMUS (0.5 nM) is 1.04 ± 0.027; with EVEROLIMUS (1 nM) it was 1.04 ± 0.014; with EVEROLIMUS (5 nM), 1.04 ± 0.029; with EVEROLIMUS (10 nM) it was 1.036 ± 0.0052; in the assay with EVEROLIMUS (50 nM) it was 1.15 ± 0.023; with EVEROLIMUS (100 nM), 1.14 ± 0.058. Besides, the surviving fraction with EVEROLIMUS (500 nM) was 1.09 ± 0.036; with EVEROLIMUS (1000 nM), 1.16 ± 0.055; with MK0752 (0.5 nM), 1.07 ± 0.098; in the assay with MK0752 (1 nM), 1.14 ± 0.056; in the assay with MK0752 (5 nM), 1.08 ± 0.023; in the assay with MK0752 (10 nM) it was 1.09 ± 0.035. Moreover, the surviving fraction with MK0752 (50 nM) came out at 1.13 ± 0.16; with MK0752 (100 nM) it was 1.2 ± 0.087; in the assay with MK0752 (500 nM) it was 1.2 ± 0.034; with MK0752 (1000 nM) it was 1.2 ± 0.09.
HMLE3 BREAST: the surviving fraction was found to be 1.02 ± 0.065 with EVEROLIMUS (0.5 nM); 0.956 ± 0.02 with EVEROLIMUS (1 nM); 0.813 ± 0.036 in the assay with EVEROLIMUS (5 nM); 0.682 ± 0.016 in the assay with EVEROLIMUS (10 nM); 0.455 ± 0.063 with EVEROLIMUS (50 nM); 0.402 ± 0.036 with EVEROLIMUS (100 nM). The surviving fraction came to 0.322 ± 0.044 with EVEROLIMUS (500 nM); 0.306 ± 0.019 with EVEROLIMUS (1000 nM); 0.958 ± 0.049 with MK0752 (0.5 nM); 1.06 ± 0.039 with MK0752 (1 nM); 1.08 ± 0.024 with MK0752 (5 nM); 1.06 ± 0.062 in the assay with MK0752 (10 nM). Also, the surviving fraction in the assay with MK0752 (50 nM) was determined as 0.999 ± 0.086; in the assay with MK0752 (100 nM) it was 1.02 ± 0.066; with MK0752 (500 nM), 0.979 ± 0.1; in the assay with MK0752 (1000 nM), 0.978 ± 0.069.
As to HMT3552 BREAST, the surviving fraction with EVEROLIMUS (0.5 nM) was 0.742 ± 0.097; in the assay with EVEROLIMUS (1 nM) it was 0.6117 ± 0.0057; with EVEROLIMUS (5 nM), 0.591 ± 0.021; with EVEROLIMUS (10 nM), 0.598 ± 0.032; with EVEROLIMUS (50 nM) it was 0.649 ± 0.016; with EVEROLIMUS (100 nM), 0.616 ± 0.049. Moreover, the surviving fraction with EVEROLIMUS (500 nM) was 0.545 ± 0.05; in the assay with EVEROLIMUS (1000 nM), 0.549 ± 0.067; with MK0752 (0.5 nM), 1.05; in the assay with MK0752 (1 nM), 1.07; with MK0752 (5 nM) it was 1.01; with MK0752 (10 nM), 0.985. In addition, the surviving fraction is 1.04 in the assay with MK0752 (50 nM), 1.16 in the assay with MK0752 (100 nM), 1.11 in the assay with MK0752 (500 nM) and 1.12 with MK0752 (1000 nM).
Take HOS BONE: the surviving fraction was 0.885 ± 0.015 with EVEROLIMUS (0.5 nM); 0.861 ± 0.0096 with EVEROLIMUS (1 nM); 0.804 ± 0.018 with EVEROLIMUS (5 nM); 0.742 ± 0.021 with EVEROLIMUS (10 nM); 0.763 ± 0.011 with EVEROLIMUS (50 nM); 0.766 ± 0.012 in the assay with EVEROLIMUS (100 nM). For the same test system, the surviving fraction with EVEROLIMUS (500 nM) is 0.711 ± 0.033; in the assay with EVEROLIMUS (1000 nM) it was 0.721 ± 0.0092; in the assay with MK0752 (0.5 nM), 1.03 ± 0.026; with MK0752 (1 nM), 1.02 ± 0.037; with MK0752 (5 nM), 1.058 ± 0.01; with MK0752 (10 nM), 1.04 ± 0.016. The surviving fraction with MK0752 (50 nM) was found to be 1.1 ± 0.024; with MK0752 (100 nM) it was 1.1 ± 0.035; with MK0752 (500 nM) it was 1.03 ± 0.046; with MK0752 (1000 nM), 1.1 ± 0.023.
